Counter-ions that a name gives are not always drawn. Like-named read-outs stand apart in the source and are kept apart here.
Tests used:
[1] = conditioned avoidance-escape procedure (modified pole-climb avoidance); assay type: in vivo; conditions: oral, male Wistar rat
Experimental: In order to further assess their usefulness, representative compounds of the invention were tested in a conditioned avoidance-escape procedure. In this test*, an animal (male Wistar rat) is conditioned to respond to a stimulus in order to avoid an unpleasant electrical shock. Should the animals fail to give the response in order to avoid the shock, an escape route is available so that it can escape the shock once it is delivered. Preferably, compounds will show variations between the dose that will supress conditioned avoidance and the dose that will suppress the escape response.
*Modification of the pole-climb avoidance paradigm described in Ann. NY Acad. Sci., 740, (1957).

[2] = Mouse Activity and Screen Test Procedure (MAST): inhibition of spontaneous locomotion and inverted screen test; assay type: in vivo, Swiss-Webster male mice; conditions: ip, 1 h, intraperitoneal, one hour prior to testing, mice, locomotion over 60 minutes, read-out: Dose at which an overall dose rating of A was obtained
From the text: The compound of the invention are new chemical substances which are useful as pharmaceutical agents for the treatment of psychoses. The antipsychotic activity of representative compounds of the invention was established by the Mouse Activity and Screen Test Procedure (MAST) described below.
ANIMALS: Nine unfasted Swiss-Webster male mice (Buckberg Labs) weighing 20-30 g are equally divided into three groups for each drug dose to be tested. That is, data for each dose level was generated by three separate groups of three mice each.
DRUGS: A minimum of three dose levels (10, 30, and 100 mg/kg) are tested for each drug. Treatments are administered intraperitoneally one hour prior to testing. All dosages are calculated as parent compound and given in volumes of […]. Compounds are dissolved or suspended in 0.2% Methocel. Control animals are injected with Methocel.
TESTING: A two part testing procedure is started one hour postinjection. First, the screen test is performed (see Pharmac. Biochem. Behav. 6, 351-353, 1977). Briefly this test consists of placing mice on individual wire screens which are then rotated 180 degrees at the start of a 60-second observation period. The number of mice falling off the inverted screen is recorded.
Immediately following the screen test, the final phase of testing is initiated by placing each group of three mice in one actophotometer (Life Sciences, 22, 1067-1076, 1978). The actophotometer consists of a cylindrical chamber whose center is occupied by another cylinder which contains the illumination for six photocells located on the perimeter of the chamber. Six light-beam interruptions equal one count. Locomotor activity is recorded by computer at 10-minute intervals for 60 minutes.
DATA: The data obtained from the screen test are expressed as percent of mice falling off the screen. Data derived from locomotor activity of drug treated mice are compared to the activity of vehicle treated animals and are expressed as percent inhibition of spontaneous locomotion. All percentages reported for inhibition of locomotion are based upon data accumulated for one hour. Both phases of testing are graded: A=60-100%; C=31-59%; and N=0-30%. An overall dose rating is obtained by the following criteria: […]
Utilizing this procedure, an overall dose rating of A was obtained for the noted compound at the indicated dose as reported in Table 1.

[3] = as above; assay type: in vivo, Swiss-Webster male mice; conditions: po, Compound administered orally, mice, read-out: Dose at which an overall dose rating of A was obtained
[4] = suppression of conditioned avoidance, read-out: Oral ED50 Avoidance
[5] = suppression of escape response, read-out: Oral ED50 Escape

Row | SMILES | ED50 [1, 4] | ED50 [1, 5] | minimal effective dose [2] | minimal effective dose [3]
1 | CC1=Nc2c(C)nn(C)c2C2=NC(C)CN12 (racemic) [R1=CH3, R2=CH3, R3=CH3, R4=H, R5=CH3 (Racemate), 7,8-dihydro-1,3,5,8-tetramethyl-1H-imidazo[1,2-c]pyrazolo[3,4-e]pyrimidine] | 10 mg/kg | 32 mg/kg |  | 
2 | Cc1nn(C)c2c1N=C(C1CC1)N1CC(C)N=C21 (centres unmarked) [5-Cyclopropyl-7,8-dihydro-1,3,8-trimethyl-1H-imidazo[1,2-c]pyrazolo[3,4-e]pyrimidine] | 11.5 mg/kg | 110 mg/kg | 100 mg/kg | 
3 | CCc1nc2c(C)nn(C)c2c2nc(C)cn12 [5-Ethyl-1,3,8-trimethyl-1H-imidazo[1,2-c]pyrazolo[3,4-e]pyrimidine] | 8 mg/kg | 45 mg/kg |  | 
4 | CCC1=Nc2c(C)nn(CC)c2C2=NC(C)CN12 (centres unmarked) [R1=C2H5, R2=CH3, R3=C2H5, R4=H, R5=CH3, 1,5-Diethyl-7,8-dihydro-3,8-dimethyl-1H-imidazo[1,2-c]pyrazolo[3,4-e]pyrimidine] | 9 mg/kg | 50 mg/kg | 100 mg/kg | 
5 | CCn1nc(C)c2c1C1=NC(C)CN1C(C)=N2 (centres unmarked) [R1=C2H5, R2=CH3, R3=CH3, R4=H, R5=CH3, 7,8-Dihydro-1-ethyl-3,5,8-trimethyl-1H-imidazo[1,2-c]pyrazolo[3,4-e]pyrimidine] | 5 mg/kg | 15 mg/kg |  | 
6 | CCn1nc(C)c2c1C1=NCCN1C(C)=N2 [R1=C2H5, R2=CH3, R3=CH3, R4=H, R5=H, 1-Ethyl-7,8-dihydro-3,5-dimethyl-1H-imidazo[1,2-c]pyrazolo[3,4-e]pyrimidine] | 10 mg/kg | 28 mg/kg |  | 
7 | CC1=Nc2c(C)nn(CC(F)(F)F)c2C2=NC(C)CN12 (centres unmarked) [R1=CF3CH2, R2=CH3, R3=CH3, R4=H, R5=CH3, 7,8-Dihydro-3,5,8-trimethyl-1-(2,2,2-trifluoroethyl)-1H-imidazo[1,2-c]pyrazolo[3,4-e]pyrimidine] |  |  | 100 mg/kg | 
8 | CCC1=Nc2c(C)nn(C)c2C2=NCC(C)N12 (centres unmarked) [R1=CH3, R2=CH3, R3=C2H5, R4=CH3, R5=H, 7,8-Dihydro-5-ethyl-1,3,7-trimethyl-1H-imidazo[1,2-c]pyrazolo[3,4-e]pyrimidine] | 35 mg/kg | 52 mg/kg | 100 mg/kg | 
9 | CCC1=Nc2c(C)nn(C)c2C2=NC(C)CN12 (centres unmarked) [R1=CH3, R2=CH3, R3=C2H5, R4=H, R5=CH3, 7,8-Dihydro-5-ethyl-1,3,8-trimethyl-1H-imidazo[1,2-c]pyrazolo[3,4-e]pyrimidine] | 6.4 mg/kg | 66 mg/kg |  | 
10 | CCC1=Nc2c(C)nn(C)c2C2=NCCN12 [R1=CH3, R2=CH3, R3=C2H5, R4=H, R5=H, 5-Ethyl-7,8-dihydro-1,3-dimethyl-1H-imidazo[1,2-c]pyrazolo[3,4-e]pyrimidine] |  |  |  | 90 mg/kg
11 | CC1=Nc2c(C)nn(C)c2C2=NCC(C)(C)N12 [R1=CH3, R2=CH3, R3=CH3, R4=(CH3)2, R5=H2, 7,8-Dihydro-1,3,5,7,7-pentamethyl-1H-imidazo[1,2-c]pyrazolo[3,4-e]pyrimidine] | 32 mg/kg | 80 mg/kg |  | 
12 | CC1=Nc2c(C)nn(C)c2C2=NC(C)C(C)N12 (centres unmarked) [R1=CH3, R2=CH3, R3=CH3, R4=CH3, R5=CH3, 7,8-dihydro-1,3,5,7,8-pentamethyl-1H-imidazo[1,2-c]pyrazolo[3,4-e]pyrimidine] | 20 mg/kg | 57 mg/kg | 100 mg/kg | 
13 | CC1=Nc2c(C)nn(C)c2C2=NC(C)(C)CN12 [R1=CH3, R2=CH3, R3=CH3, R4=H2, R5=(CH3)2, 7,8-Dihydro-1,3,5,8,8-pentamethyl-1H-imidazo[1,2-c]pyrazolo[3,4-e]pyrimidine] | 18 mg/kg | 120 mg/kg |  | 
14 | CCC1CN2C(C)=Nc3c(C)nn(C)c3C2=N1 (centres unmarked) [R1=CH3, R2=CH3, R3=CH3, R4=H, R5=C2H5, 8-ethyl-7,8-dihydro-1,3,5-trimethyl-1H-imidazo[1,2-c]pyrazolo[3,4-e]pyrimidine] | 7.5 mg/kg | 32 mg/kg |  | 
15 | CC1=Nc2c(C)nn(C)c2C2=N[C@H](C)CN12 [R1=CH3, R2=CH3, R3=CH3, R4=H, R5=CH3 (R-isomer), 7,8-Dihydro-1,3,5-trimethyl-1H-imidazo[1,2-c]-pyrazolo[3,4-e]pyrimidine (R-form)] | < 65 mg/kg | < 65 mg/kg |  | 
16 | CC1=Nc2c(C)nn(C)c2C2=N[C@@H](C)CN12 [R1=CH3, R2=CH3, R3=CH3, R4=H, R5=CH3 (S-isomer), 7,8-Dihydro-1,3,5,8-tetramethyl-1H-imidazo[1,2-c]pyrazolo[3,4-e]pyrimidine (S-form)] | 11.5 mg/kg | 20 mg/kg | 100 mg/kg | 
17 | CC1=Nc2c(C)nn(C)c2C2=N[C@@H](C(C)C)CN12 [R1=CH3, R2=CH3, R3=CH3, R4=H, R5=i-C3H7 (S-isomer), 7,8-Dihydro-8-isopropyl-1,3,5-trimethyl-1H-imidazo[1,2-c]pyrazolo[3,4-e]pyrimidine dihydrochloride (S-form)] | 20 mg/kg | 70 mg/kg | 100 mg/kg | 
18 | Cc1nn(C)c2c1N=CN1CC(C)N=C21 (centres unmarked) [R1=CH3, R2=CH3, R3=H, R4=H, R5=CH3, 7,8-Dihydro-1,3,8-trimethyl-1H-imidazo[1,2-c]pyrazolo[3,4-e]pyrimidine] | 18 mg/kg | 56 mg/kg | 100 mg/kg | 
19 | Cc1nn(C)c2c1N=CN1CCN=C21 [R1=CH3, R2=CH3, R3=H, R4=H, R5=H, 7,8-Dihydro-1,3-dimethyl-1H-imidazo[1,2-c]pyrazolo [3,4-e]pyrimidine] | 18 mg/kg | 54 mg/kg | 100 mg/kg | 
20 | CCCn1nc(C)c2c1C1=NC(C)CN1C(C)=N2 (centres unmarked) [R1=n-C3H7, R2=CH3, R3=CH3, R4=H, R5=CH3, 7,8-Dihydro-3,5,8-trimethyl-1-n-propyl-1H-imidazo[1,2-c]pyrazolo[3,4-e]pyrimidine] | 37 mg/kg | 90 mg/kg | 100 mg/kg | 
